Like-named read-outs stand apart in the source and are kept apart here.
Key:
[1] = molecular target: VIM-1 (Pseudomonas aeruginosa (strain ATCC 15692 / DSM 22644 / CIP 104116 / JCM 14847 / LMG 12228 / 1C / PRS 101 / PAO1), UniProt A0A0F7KYQ8); assay: biochemical; settings: fluorescence assay, CCF2-FA substrate, 30 pM enzyme, 2 hours at 25° C.; read-out: VIM-1 IC50
Experimental: Enzyme Activity: Determination of IC50
The Class B enzyme activities were measured in the presence of the test inhibitor in a fluorescence assay against a commercially available substrate consisting of a cephalosporin core linking 7-hydroxycoumarin to fluorescein (CCF2-FA). […] In a 384-well microplate, the test inhibitor was incubated with the metallo-β-lactamase enzyme and the substrate for 2 hours at 25° C. […] The IC50 value was determined from semi-logarithmic plots of enzyme inhibition versus inhibitor concentration, with a curve generated using a 4-parameter fit.

[2] = test system: Escherichia coli expressing NDM-1 (CLB30005, CLB30016); assay type: cell-based; settings: with imipenem 1 μg/ml; for Escherichia coli expressing NDM-1 (CLB30016) MITC95: 95% inhibition of bacterial growth; for Escherichia coli MITC95: NDM-1 strain, 95% inhibition of growth
Method in brief: (§1)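 Imipenem 1 μg/ml + inhibitor; MBL-expressing clinical strains in 1.1×CAMHB, inoculum from saline suspension diluted 1:100; 35° C, 22–24 h; absorbance read-out.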

[3] = test system: Klebsiella pneumoniae expressing VIM-1 (IHMA599644); assay type: cell-based; settings: for Klebsiella pneumoniae expressing VIM-1 (IHMA599644) MITC95: with imipenem 1 μg/ml, 95% inhibition of bacterial growth; for Klebsiella pneumoniae MITC95: VIM-1 strain IHMA599644, with imipenem 1 μg/ml, 95% inhibition of growth
Method in brief: as §1

[4] = test system: Serratia marcescens expressing IMP-1 (CL5741); assay type: cell-based; settings: for Serratia marcescens expressing IMP-1 (CL5741) MITC95: with imipenem 1 μg/ml, 95% inhibition of bacterial growth; for Serratia marcescens MITC95: IMP-1 strain CL5741, with imipenem 1 μg/ml, 95% inhibition of growth
Method in brief: as §1

[5] = test system: Pseudomonas aeruginosa efflux+ (MB9798), IMP-1; assay type: cell-based; set-up: Concentration of metallo-β-lactamase inhibitor which restores susceptibility of efflux + (MB9798) strain to imipenem: unit not given here; settings: C, D serine β-lactamase inhibitor closely related to relebactam; for P. aeruginosa expressing IMP-1, efflux + (MB9798) MITC95: concentration restoring susceptibility to imipenem at 2 μg/mL in the presence of a class A; for Concentration of metallo-β-lactamase inhibitor which restores susceptibility of efflux + (MB9798) strain to imipenem: imipenem at 2 μg/mL, in the presence of a class A
Method in brief: (§2)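 Microbroth MIC tests in PAO1-background strains with fixed imipenem and/or ceftazidime, usually at the CLSI breakpoint, plus fixed class A/C β-lactamase inhibitor against AmpC. MBL inhibitor titrated; concentration restoring susceptibility recorded and compared as fold difference between efflux+ MB9798 and efflux− MB9799.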

[6] = test system: Pseudomonas aeruginosa efflux− (MB9799), IMP-1; assay type: cell-based; settings: C, D serine β-lactamase inhibitor closely related to relebactam; for P. aeruginosa expressing IMP-1, efflux − (MB9799) MITC95: concentration restoring susceptibility to imipenem at 2 μg/mL in the presence of a class A; for Concentration of metallo-β-lactamase inhibitor which restores susceptibility of efflux − (MB9799) strain to imipenem: imipenem at 2 μg/mL, in the presence of a class A
Method in brief: as §2

[7] = test system: Pseudomonas aeruginosa MB9798 vs MB9799
Text: The strain background was Pseudomonas aeruginosa PAO1.
The strain set was then used as a pair to determine the effect of metallo-β-lactamase inhibitors of Formula I on the MIC of imipenem and/or ceftazidime. A fixed concentration of antibiotic was included in standard microbroth MIC tests, usually at the CLSI (Clinical and Laboratory Standards Institute) breakpoint concentration. A fixed amount of a class A/C beta-lactamase inhibitor was also included to inhibit the resident Pseudomonas AmpC enzyme. A serial titration of the metallo-β-lactamase inhibitor was included and the concentration of metallo-β-lactamase inhibitor which restores susceptibility of the strain to the included antibiotic was recorded. That concentration of metallo-β-lactamase inhibitor was then compared between the two strains to determine the fold difference between the efflux+ (MB9798) and efflux− (MB9799) strains. This was taken as an indication of the extent to which the MBLi is subject to efflux.

[8] = molecular target: IMP-1 (Serratia marcescens, UniProt P52699); assay: biochemical; assay type: biochemical; settings: fluorescence assay, CCF2-FA substrate, 2 pM enzyme, 2 hours at 25° C.; read-out: IMP-1 IC50
Method in brief: (§3)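 Class B activity is measured in the presence of compound by fluorescence with CCF2-FA after a 2-hour incubation at 25° C. IC50 is taken from a 4-parameter fit of semi-logarithmic dose-response data.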

[9] = molecular target: NDM-1 (Klebsiella pneumoniae, UniProt C7C422); assay: biochemical; assay type: biochemical; settings: fluorescence assay, CCF2-FA substrate, 1 pM enzyme, 2 hours at 25° C.; read-out: NDM-1 IC50
Method in brief: as §3

[10] = ratio MITC95 PA_9798/MITC95 PA_9799
[11] = fold difference between efflux+ (MB9798) and efflux− (MB9799) strains, imipenem at 2 μg/mL

Chain of IMP-1 (P52699 whole entry, looked up, species assumed): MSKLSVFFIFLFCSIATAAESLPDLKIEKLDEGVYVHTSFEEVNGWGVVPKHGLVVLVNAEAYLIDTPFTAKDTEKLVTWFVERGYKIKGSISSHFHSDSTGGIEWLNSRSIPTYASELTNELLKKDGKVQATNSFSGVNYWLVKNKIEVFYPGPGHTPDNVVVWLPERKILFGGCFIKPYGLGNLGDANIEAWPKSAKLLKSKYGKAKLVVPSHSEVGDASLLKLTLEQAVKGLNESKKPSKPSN
Chain of NDM-1 (C7C422 whole entry, looked up, species assumed): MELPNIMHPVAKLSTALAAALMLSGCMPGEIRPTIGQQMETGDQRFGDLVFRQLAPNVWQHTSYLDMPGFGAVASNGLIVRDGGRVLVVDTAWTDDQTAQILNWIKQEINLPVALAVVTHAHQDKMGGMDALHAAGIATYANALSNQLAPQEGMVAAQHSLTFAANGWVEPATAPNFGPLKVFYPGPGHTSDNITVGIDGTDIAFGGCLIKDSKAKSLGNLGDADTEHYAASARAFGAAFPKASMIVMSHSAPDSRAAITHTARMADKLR

| SMILES | IC50 [1] [pM] | Escherichia coli expressing NDM-1 (CLB30016) MITC95 [2] [µM] | Klebsiella pneumoniae expressing VIM-1 (IHMA599644) MITC95 [3] [µM] | Serratia marcescens expressing IMP-1 (CL5741) MITC95 [4] [µM] | P. aeruginosa expressing IMP-1, efflux + (MB9798) MITC95 [5] [µM] | P. aeruginosa expressing IMP-1, efflux − (MB9799) MITC95 [6] [µM] | Efflux ratio [7, 10] | IC50 [8] [pM] | IC50 [9] [pM] | Escherichia coli MITC95 [2] [µM] | Klebsiella pneumoniae MITC95 [3] [µM] | Serratia marcescens MITC95 [4] [µM] | Concentration of metallo-β-lactamase inhibitor which restores susceptibility of efflux + (MB9798) strain to imipenem [5] | Concentration of metallo-β-lactamase inhibitor which restores susceptibility of efflux − (MB9799) strain to imipenem [6] | Efflux ratio [7, 11] |
| --- | --- | --- | --- | --- | --- | --- | --- | --- | --- | --- | --- | --- | --- | --- | --- |
| C[C@H](CN)NS(=O)(=O)c1ccc(-c2cccnc2N)c(-c2nn[nH]n2)c1S(N)(=O)=O [Example 212, (R)-N1-(1-amino-propan-2-yl)-4-(2-aminopyridin-3-yl)-3-(2H-tetrazol-5-yl)benzene-1,2-disulfonamide] | 154 | 0.3906 | 1.563 | 0.7813 | 1.563 | 1.563 | 1.00 |  |  |  |  |  |  |  |  |
| C[N+]1(CCN)CC[C@H](NS(=O)(=O)c2ccc(-c3cccc4[nH]c(N)nc34)c(-c3nn[nH]n3)c2S(N)(=O)=O)C1.O=C([O-])O (stereo partly drawn) [Example 249, (3S)-3-{[4-(2-amino-1H-1,3-benzodiazol-4-yl)-2-sulfamoyl-3-(2H-1,2,3,4-tetrazol-5-yl)benzene]sulfonamido}-1-(2-aminoethyl)-1-methylpyrrolidin-1-ium methaneperoxoate] |  |  |  |  | 0.7813 | 0.7813 | 1.00 | 342 | 15.3 | 0.3906 | 1.563 | 1.563 |  |  |  |
| C[N+]1(C)CC[C@@H](NS(=O)(=O)c2ccc(-c3cccc4[nH]c(N)nc34)c(-c3nn[nH]n3)c2S(N)(=O)=O)C1.[Cl-] [Example 233, (R)-3-((4-(2-amino-1H-benzo[d]imidazol-4-yl)-2-sulfamoyl-3-(2H-tetrazol-5-yl)phenyl)sulfonamido)-1,1-dimethylpyrrolidin-1-ium chloride] |  | 0.3906 | 1.563 | 0.3906 | 1.563 | 1.563 | 1.00 | 305 | 22.5 |  |  |  |  |  |  |
| NCCNC(=O)c1cc(Cl)cc(-c2ccc(S(=O)(=O)N[C@@H]3CCNC3)c(S(N)(=O)=O)c2-c2nn[nH]n2)c1N [Example 450] | 276 |  |  |  |  |  |  |  |  | 1.563 | 1.563 | 1.563 | 1.563 | 0.7813 | 2.00 |
| NCCNS(=O)(=O)c1ccc(-c2cccc(C(=O)N[C@@H]3CNC[C@H]3O)c2)c(-c2nn[nH]n2)c1S(N)(=O)=O [Example 344] | 520 |  |  |  | 1.563 | 0.7813 |  | 4260 | 1390 | 0.7813 | 1.563 | 1.563 |  |  |  |
| CNc1nc2c(-c3ccc(S(=O)(=O)NCCN)c(S(N)(=O)=O)c3-c3nn[nH]n3)cccc2[nH]1 [Example 467, N1-(2-aminoethyl)-4-(2-(methylamino)-1H-benzo[d]imidazol-4-yl)-3-(2H-tetrazol-5-yl)benzene-1,2-disulfonamide] | 120 |  |  |  |  |  |  |  |  | 0.7813 | 1.563 | 0.7813 | 0.3906 | 0.7813 | 0.50 |
| NCCNS(=O)(=O)c1ccc(-c2cccc3oc(N)nc23)c(-c2nn[nH]n2)c1S(N)(=O)=O [Example 11, 4-(2-aminobenzo[d]oxazol-4-yl)-N^1-(2-aminoethyl)-3-(2H-tetrazol-5-yl)benzene-1,2-disulfonamide] | 50.2 | 0.7813 | 1.563 | 0.7813 | 0.3906 | 0.3906 | 1.00 |  |  |  |  |  |  |  |  |
| Nc1nc2c(-c3ccc(S(=O)(=O)NC4C[C@@H]5CN[C@H]4C5)c(S(N)(=O)=O)c3-c3nnn[nH]3)cccc2s1.O=CO (some centres unmarked) [Example 119] |  | 1.563 | 3.125 | 1.563 | 0.7813 | 1.563 | 0.50 |  |  |  |  |  |  |  |  |
| NC[C@H]1CCN(S(=O)(=O)c2ccc(-c3cccc4[nH]c(N)nc34)c(-c3nn[nH]n3)c2S(N)(=O)=O)C1 [Example 253, (R)-3-(2-amino-1H-benzo[d]imidazol-4-yl)-6-((3-(aminomethyl)pyrrolidin-1-yl)sulfonyl)-2-(2H-tetrazol-5-yl)benzenesulfonamide] | 1530 |  |  |  | 1.563 | 0.7813 |  | 2680 | 884 | 1.563 | 1.563 | 0.7813 |  |  |  |
| Nc1ccc(-c2ccc(S(=O)(=O)N[C@H]3CNC[C@H]3N)c(S(N)(=O)=O)c2-c2nn[nH]n2)cn1 [Example 413] | 300 |  |  |  |  |  |  | 800 | 248 | 0.7813 | 3.125 | 1.563 | 1.563 | 1.563 |  |
